Experimental data from paper PMC12212008 (Drug Design, Development and Therapy, 2025).

Legend:
[1] = tested on: p53-Y220C mutant; details: covalent, targets Cys220; cited from earlier work
[2] = molecular target: T1, T-p53C-Y220C (Homo sapiens, UniProt P04637, M133L/N239Y/N268D/V203A/Y220C); assay: DSF thermal shift of T-p53C-Y220C; format: binding; details: for T-p53C-Y220C ∆Tm ± SD, concentration-dependent DSF: 1000 µM
[3] = molecular target: T1, T-p53C-Y220C; assay: Intact protein mass spectrometry of T-p53C-Y220C; format: binding; details: protein-to-compound ratio 1:100, 24 h, 20 °C

Row | T-p53C-Y220C ∆Tm ± SD ([2]; 250 µM, 24 h, 20 °C) [°C] | incubation time at which ∆Tm of T-p53C-Y220C plateaued / reached maximum ([2]; 1 mM, 20 °C, time-dependent DSF) | T-p53C-Y220C ∆Tm, time-dependent DSF ([2]; 1 mM, 10 min incubation, 20 °C) [°C] | T-p53C-Y220C ∆Tm ± SD, concentration-dependent DSF ([2]; 30 min) [°C] | T-p53C-Y220C ∆Tm ± SD ([2]; 1 mM, 30 min, 20 °C) [°C] | T-p53C-Y220C ∆Tm ± SD, concentration-dependent DSF ([2]; 24 h) [°C] | arylated T-p53C-Y220C protein species detected by intact MS [3] | Compound | increase of Tm of the Y220C mutant [1]
1 |  |  |  |  |  |  |  | C=C(C)C(=O)n1cc(C)c2c(-c3ccc4c(c3)CCN(C)C4)cncc21 [KG13] | levels comparable to those of the WT protein
2 | 2.87 | about 2 h | 2.30 | 2.65 | 2.75 | 3.55 | three, four, or five times | N#Cc1cnc(Cl)cn1 [SN006/7-3, 5-chloro-pyrazine-2-carbonitrile] | 
